Patent publication US20260001928A1 (CORTERIA PHARMACEUTICALS, priority 2022, published 2026)
*1 amine or outer side, *2 acyl side, *3 side chain or, on linkers, in order; H or OH if unused. Where a SMILES comes first, the peptide text is derived from it. Side-chain parts run from the residue outwards. [ ]: non-standard residue; d: D form. The star is where a group is joined. C18 diacid = O=C(O)CCCCCCCCCCCCCCCCC(=O)*; C16 diacid = O=C(O)CCCCCCCCCCCCCCC(=O)*; γGlu = O=C(O)[C@H](CCC(=O)[*:2])N[*:1]; NMeI = CC[C@H](C)[C@H](NC)C(=O)O; Ac6c = NC1(C(=O)O)CCCCC1; Ac5c = NC1(C(=O)O)CCCC1; Aib = CC(C)(N)C(=O)O; Butyryl = CCCC(=O)*

How the values were obtained:
human CRF2a receptor = target: T1, human CRF2a receptor (Homo sapiens, UniProt Q13324); experiment: Activity at human CRF2a receptor, cAMP functional assay in TeloHEAC cells; assay type: cell-based; conditions: TeloHEAC cells stably expressing human CRF2a receptor, relative to urocortin 2 (100 nM = 100%)
T1 construct: expressed in transfected cells; host or cells: TeloHEAC cells
T1 sequence (Q13324 1-411): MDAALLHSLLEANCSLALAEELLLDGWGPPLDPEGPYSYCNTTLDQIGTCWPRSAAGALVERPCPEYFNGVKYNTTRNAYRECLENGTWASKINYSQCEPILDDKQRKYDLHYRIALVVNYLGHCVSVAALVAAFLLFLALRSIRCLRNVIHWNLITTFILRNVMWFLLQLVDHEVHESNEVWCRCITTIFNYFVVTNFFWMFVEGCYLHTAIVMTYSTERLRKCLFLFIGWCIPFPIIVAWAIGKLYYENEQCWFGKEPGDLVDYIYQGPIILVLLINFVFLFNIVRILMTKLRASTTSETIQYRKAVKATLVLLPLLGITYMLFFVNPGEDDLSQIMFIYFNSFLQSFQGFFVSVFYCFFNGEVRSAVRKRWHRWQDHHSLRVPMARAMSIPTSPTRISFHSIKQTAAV
Procedure, shortened: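 TeloHEAC cells stably expressing human CRF2a (10000 cells/well, suspended in HBSS/20 mM HEPES with 2 mM IBMX) were exposed to compounds for 30 min at 37 °C. cAMP was read as the 665/620 nm fluorescence ratio after 1 h at room temperature. EC50 was derived relative to 100 nM urocortin 2, set as 100%.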

CFR1R receptor = target: T2, CFR1R receptor (Homo sapiens, UniProt P34998); experiment: Activity at anti-target CFR1R receptor, cAMP assay in CRF1R-overexpression CHO-K1 cells; assay type: cell-based; conditions: 100% = Sauvagine at 100 nM; for EC50: cAMP
T2 construct: host or cells: CHO-K1 (clone 2)
T2 sequence (P34998 24-415): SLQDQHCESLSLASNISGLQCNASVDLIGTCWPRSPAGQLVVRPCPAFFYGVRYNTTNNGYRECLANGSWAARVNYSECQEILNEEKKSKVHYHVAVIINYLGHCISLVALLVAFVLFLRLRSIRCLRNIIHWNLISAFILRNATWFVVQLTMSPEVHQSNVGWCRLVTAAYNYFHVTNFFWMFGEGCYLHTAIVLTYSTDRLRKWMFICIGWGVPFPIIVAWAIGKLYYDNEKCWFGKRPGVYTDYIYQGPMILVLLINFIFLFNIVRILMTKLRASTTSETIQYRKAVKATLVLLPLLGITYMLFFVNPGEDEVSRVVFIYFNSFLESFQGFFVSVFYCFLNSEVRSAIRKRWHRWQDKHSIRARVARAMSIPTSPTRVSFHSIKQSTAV
Procedure, shortened: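 Uses frozen stocks of CHO-K1 clone 2 cells overexpressing human CRF1R, plated at 4000 cells/well final, with cAMP measured by the same protocol as the TeloHAEC line. Full-activation control: 100 nM Sauvagine.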

SMILES	EC50 (human CRF2a receptor) [nM]	Emax (% I) (CFR1R receptor)	EC50 (CFR1R receptor) [nM]
CCCC(=O)N[C@H](C(=O)N[C@@H](CC(C)C)C(=O)N[C@@H](CO)C(=O)N[C@@H](CC(C)C)C(=O)N[C@@H](CC(=O)O)C(=O)N[C@@H](C(=O)N1CCC[C@H]1C(=O)N[C@H](C(=O)N[C@@H](CCCCN)C(=O)N[C@@H](CC(C)C)C(=O)N[C@@H](CCCCNC(=O)CC[C@H](NC(=O)CCCCCCCCCCCCCCC(=O)O)C(=O)O)C(=O)N[C@@H](CCCCN)C(=O)N[C@H](C(=O)N[C@@H](CC(C)C)C(=O)N[C@@H](CC(C)C)C(=O)N[C@@H](CCC(=O)O)C(=O)N[C@@H](CCC(N)=O)C(=O)N[C@@H](CCC(=O)O)C(=O)N[C@@H](CCCCN)C(=O)N[C@@H](CCC(N)=O)C(=O)N[C@@H](CCCCN)C(=O)N[C@@H](CCCCN)C(=O)N[C@@H](CCC(N)=O)C(=O)N[C@@H](CCCNC(=N)N)C(=O)N[C@@H](CCC(=O)O)C(=O)N[C@@H](CCC(N)=O)C(=O)N[C@@H](C)C(=O)N[C@@H](CCC(=O)O)C(=O)N[C@H](C(=O)N[C@@H](CC(N)=O)C(=O)N[C@@H](CCCCN)C(=O)N[C@@H](CCC(N)=O)C(=O)N[C@H](C(=O)N[C@@H](CC(C)C)C(=O)N[C@@H](C)C(=O)N[C@@H](CCC(N)=O)C(=O)N[C@H](C(N)=O)C(C)C)[C@@H](C)CC)[C@@H](C)O)[C@@H](C)CC)[C@@H](C)CC)C(C)C)C(C)C [compound 36] (Butyryl-VLSLD[dV]PIKLK([γGlu-C16 diacid])KILLEQEKQKKQREQAETNKQILAQV-NH2)	0.14	22	> 250
CC[C@H](C)[C@H](NC(C)=O)C(=O)N[C@H](C(=O)N[C@@H](CC(C)C)C(=O)N[C@@H](CO)C(=O)N[C@@H](CC(C)C)C(=O)N[C@@H](CC(=O)O)C(=O)N[C@@H](C(=O)N1CCC[C@H]1C(=O)N[C@H](C(=O)N[C@@H](CCCCN)C(=O)N[C@@H](CC(C)C)C(=O)N[C@@H](CCCCNC(=O)CC[C@H](NC(=O)CCCCCCCCCCCCCCCCC(=O)O)C(=O)O)C(=O)N[C@@H](CCCCN)C(=O)N[C@H](C(=O)N[C@@H](CC(C)C)C(=O)N[C@@H](CC(C)C)C(=O)N[C@@H](CCC(=O)O)C(=O)N[C@@H](CCC(N)=O)C(=O)N[C@@H](CCC(=O)O)C(=O)N[C@@H](CCCCN)C(=O)N[C@@H](CCC(N)=O)C(=O)N[C@@H](CCCCN)C(=O)N[C@@H](CCCCN)C(=O)N[C@@H](CCC(N)=O)C(=O)N[C@@H](CCCNC(=N)N)C(=O)N[C@@H](CCC(=O)O)C(=O)N[C@@H](CCC(N)=O)C(=O)N[C@@H](C)C(=O)N[C@@H](CCC(=O)O)C(=O)N[C@H](C(=O)N[C@@H](CC(N)=O)C(=O)NC1(C(=O)N[C@@H](CCC(N)=O)C(=O)N[C@H](C(=O)N[C@@H](CC(C)C)C(=O)N[C@@H](C)C(=O)N[C@@H](CCC(N)=O)C(=O)N[C@H](C(N)=O)C(C)C)[C@@H](C)CC)CCCCC1)[C@@H](C)O)[C@@H](C)CC)[C@@H](C)CC)C(C)C)C(C)C [compound 134] (Ac-IVLSLD[dV]PIKLK([γGlu-C18 diacid])KILLEQEKQKKQREQAETN[Ac6c]QILAQV-NH2)	0.5	10	> 250
CC[C@H](C)[C@H](NC(C)=O)C(=O)N[C@H](C(=O)N[C@@H](CC(C)C)C(=O)N[C@@H](CO)C(=O)N[C@@H](CC(C)C)C(=O)N[C@@H](CC(=O)O)C(=O)N[C@@H](C(=O)N1CCC[C@H]1C(=O)N[C@H](C(=O)N[C@@H](CCCCN)C(=O)N[C@@H](CC(C)C)C(=O)N[C@@H](CCCCNC(=O)CC[C@H](NC(=O)CCCCCCCCCCCCCCCCC(=O)O)C(=O)O)C(=O)N[C@@H](CCCCN)C(=O)N[C@H](C(=O)N[C@@H](CC(C)C)C(=O)N[C@@H](CC(C)C)C(=O)N[C@@H](CCC(=O)O)C(=O)N[C@@H](CCC(N)=O)C(=O)N[C@@H](CCC(=O)O)C(=O)N[C@@H](CCCCN)C(=O)N[C@@H](CCC(N)=O)C(=O)N[C@@H](CCCCN)C(=O)N[C@@H](CCCCN)C(=O)N[C@@H](CCC(N)=O)C(=O)N[C@@H](CCCNC(=N)N)C(=O)N[C@@H](CCC(=O)O)C(=O)N[C@@H](CCC(N)=O)C(=O)N[C@@H](C)C(=O)N[C@@H](CCC(=O)O)C(=O)N[C@H](C(=O)N[C@@H](CC(N)=O)C(=O)NC1(C(=O)N[C@@H](CCC(N)=O)C(=O)N[C@H](C(=O)N[C@@H](CC(C)C)C(=O)N[C@@H](C)C(=O)N[C@@H](CCC(N)=O)C(=O)N[C@H](C(N)=O)C(C)C)[C@@H](C)CC)CCCC1)[C@@H](C)O)[C@@H](C)CC)[C@@H](C)CC)C(C)C)C(C)C [compound 135] (Ac-IVLSLD[dV]PIKLK([γGlu-C18 diacid])KILLEQEKQKKQREQAETN[Ac5c]QILAQV-NH2)	0.19	15	> 250

Further compounds by falling EC50 (human CRF2a receptor), results first:

EC50 (human CRF2a receptor) [nM]	Emax (% I) (CFR1R receptor)	EC50 (CFR1R receptor) [nM]	SMILES
0.19	3	> 250	CC[C@H](C)[C@H](NC)C(=O)N[C@H](C(=O)N[C@@H](CC(C)C)C(=O)N[C@@H](CO)C(=O)N[C@@H](CC(C)C)C(=O)N[C@@H](CC(=O)O)C(=O)N[C@@H](C(=O)N1CCC[C@H]1C(=O)N[C@H](C(=O)N[C@@H](CCCCN)C(=O)N[C@@H](CC(C)C)C(=O)N[C@@H](CCCCNC(=O)CC[C@H](NC(=O)CCCCCCCCCCCCCCC(=O)O)C(=O)O)C(=O)N[C@@H](CCCCN)C(=O)N[C@H](C(=O)N[C@@H](CC(C)C)C(=O)N[C@@H](CC(C)C)C(=O)N[C@@H](CCC(=O)O)C(=O)N[C@@H](CCC(N)=O)C(=O)N[C@@H](CCC(=O)O)C(=O)N[C@@H](CCCCN)C(=O)N[C@@H](CCC(N)=O)C(=O)N[C@@H](CCCCN)C(=O)NC(C)(C)C(=O)N[C@@H](CCC(N)=O)C(=O)N[C@@H](CCCNC(=N)N)C(=O)N[C@@H](CCC(=O)O)C(=O)N[C@@H](CCC(N)=O)C(=O)N[C@@H](C)C(=O)N[C@@H](CCC(=O)O)C(=O)N[C@H](C(=O)N[C@@H](CC(N)=O)C(=O)NC(C)(C)C(=O)N[C@@H](CCC(N)=O)C(=O)N[C@H](C(=O)N[C@@H](CC(C)C)C(=O)N[C@@H](C)C(=O)N[C@@H](CCC(N)=O)C(=O)N[C@H](C(N)=O)C(C)C)[C@@H](C)CC)[C@@H](C)O)[C@@H](C)CC)[C@@H](C)CC)C(C)C)C(C)C [compound 75] (H-[NMeI]VLSLD[dV]PIKLK([γGlu-C16 diacid])KILLEQEKQK[Aib]QREQAETN[Aib]QILAQV-NH2)
0.09	48		CC[C@H](C)[C@H](NC)C(=O)N[C@H](C(=O)N[C@@H](CC(C)C)C(=O)N[C@@H](CO)C(=O)N[C@@H](CC(C)C)C(=O)N[C@@H](CC(=O)O)C(=O)N[C@@H](C(=O)N1CCC[C@H]1C(=O)N[C@H](C(=O)N[C@@H](CCCCN)C(=O)N[C@@H](CC(C)C)C(=O)N[C@@H](CCCCNC(=O)CC[C@H](NC(=O)CCCCCCCCCCCCCCC(=O)O)C(=O)O)C(=O)N[C@@H](CCC(N)=O)C(=O)N[C@H](C(=O)N[C@@H](CC(C)C)C(=O)N[C@@H](CC(C)C)C(=O)N[C@@H](CCCCN)C(=O)N[C@@H](CCC(N)=O)C(=O)N[C@@H](CCC(=O)O)C(=O)N[C@@H](CCCNC(=N)N)C(=O)N[C@@H](CCC(N)=O)C(=O)N[C@@H](CCCCN)C(=O)N[C@@H](CCCCN)C(=O)N[C@@H](CCC(N)=O)C(=O)N[C@@H](CCCNC(=N)N)C(=O)N[C@@H](CCC(=O)O)C(=O)N[C@@H](CCC(N)=O)C(=O)N[C@@H](C)C(=O)N[C@@H](CCC(=O)O)C(=O)N[C@@H](CCCCN)C(=O)N[C@@H](CC(N)=O)C(=O)N[C@@H](CCCCN)C(=O)N[C@@H](CCC(N)=O)C(=O)N[C@H](C(=O)N[C@@H](CC(C)C)C(=O)N[C@@H](CCC(=O)O)C(=O)N[C@@H](CCC(N)=O)C(=O)N[C@H](C(N)=O)C(C)C)[C@@H](C)CC)[C@@H](C)CC)[C@@H](C)CC)C(C)C)C(C)C [SEQ ID No. 5, reference compound] (H-[NMeI]VLSLD[dV]PIKLK([γGlu-C16 diacid])QILLKQERQKKQREQAEKNKQILEQV-NH2)
